Source: publication PMC10028264, “Synergistic antifungal interaction of N-(butylcarbamothioyl) benzamide and amphotericin B against Cryptococcus neoformans” (Frontiers in Microbiology, 2023)
Converted amounts (≈) assume the structure as drawn. Where two headings read alike, the source gives them in different places.

Key:
Cryptococcus neoformans [1] = test: Fungal capsule and cell size (Chinese ink, light microscopy); assay type: cell-based; conditions: compared to untreated cells; ATCC 34872 and 1172; 48 h; p < 0.05
Description: For all assays, fungal cells were incubated in RPMI-MOPS (except when specified) supplemented with BTU-01 and AmB alone at MIC and MFC values or combined at the synergistic MIC values. Untreated fungal cells were considered as control.
Cryptococcus neoformans was cultivated in a minimal capsular induction medium (15 mM glucose, 10 mM MgSO4, 29.4 mM KH2PO4, 13 mM glycine and 3 μM thiamine-HCl, pH 5.5) at 37°C for 7 days ([Frases et al., 2009]). Afterward, a standard fungal suspension was prepared as described above, and the cells (1.0 × 10^7 CFU/mL) were treated with the compounds at 37°C for 48 h. Cells were collected by centrifugation (10,000 × g, 1 min), suspended in an equal volume of Chinese ink on glass slides, spread the smear evenly with coverslips, and observed with a Zeiss Axio Imager 2 microscope (Zeiss, Germany). The capsule size of 100 randomly chosen cells was measured by using the software ImageJ 1.49v.^1 The capsule thickness was determined according to [Spadari et al. (2019)], which consisted of the difference between the diameter of the cell, including the capsule, with the diameter of the body cell within the cell wall.

Hemolysis assay = assay type: cell-based, human; conditions: human, human erythrocyte suspension (3%); range over tested concentrations; compound alone; 3 h at 37°C; read-out: percentage of hemolysis
Description: The cytotoxicity of BTU-01 (1.95–1000.0 μg/mL) alone and combined with AmB (0.015–16.0 μg/mL) was evaluated on human erythrocytes. Blood from a healthy donor was collected according to the Declaration of Helsinki principles, defibrinated and an erythrocytes suspension (3%) was prepared in 5% glycosylated saline. A total of 100 μL of the erythrocytes suspension was incubated for 3 h at 37°C in wells of U-bottom 96-well polystyrene plates containing different concentrations of the compounds. Wells without the compounds and with 1% Triton X-100 were used as negative and positive hemolysis controls, respectively. The OD of the supernatant was determined at 550 nm with a microtiter plate reader (Synergy HT, BioTek, USA). The percentage of hemolysis was calculated by comparison with the positive control ([Izumi et al., 2012]).
The concentration of BTU-01 capable of causing 90% of hemolysis/cytotoxicity was used to calculate the selectivity index (SI) using the following equation: SI = CC90/MIC.

Cryptococcus neoformans [2] = test: Broth microdilution MIC and MFC on planktonic cells; assay type: cell-based
Description: Cryptococcus neoformans ATCC 34872 (serotype A), C. neoformans ATCC 66031 (serotype D), and four C. neoformans human isolates (Table 1) belonging to the microbial collection of the Laboratório de Biologia Molecular de Microrganismos of Universidade Estadual de Londrina (UEL), Londrina, Paraná, Brazil, were included in the present study. Yeasts were cultivated in Sabouraud dextrose (SD) agar at 37°C for 48 h and stored at 4°C. For the experiments, five colonies were transferred to SD broth and incubated under the same conditions. Cells were then centrifuged (10,000 × g for 1 min) and resuspended in 0.85% NaCl solution (saline) to achieve turbidity equivalent to 0.5 McFarland standard using the DensiCHEK™ PLUS colorimeter (bioMérieux), which corresponds to approximately 1.0–2.0 × 10^6 colony forming units (CFUs)/mL (standard fungal suspension). The fungal suspension was diluted in a culture medium to achieve the inoculum used in each assay. The study protocol was in accordance with the ethics committee of the UEL. The patients signed a written informed consent form agreeing with this publication (CAAE number 57452322.2.0000.5231).
Minimal inhibitory concentrations (MIC) of BTU-01 and AmB were determined by the broth microdilution method ([CLSI, 2017]). An inoculum (100 μL) of yeast cells (0.5–2.5 × 10^3 CFU/mL) was added into the wells of a U-bottom 96-well microtiter plate (Techno Plastic Products, Switzerland) containing twofold serial dilutions of BTU-01 (1.95–1000.0 μg/mL) and AmB (0.031–16.0 μg/mL) in RPMI-MOPS. Wells containing medium or medium plus DMSO 1% with or without the fungal cells were used as growth and sterility controls, respectively. Candida parapsilosis ATCC 22019 was used as quality control. […] The results of AmB were interpreted using the epidemiological cut-off values proposed in [Espinel-Ingroff et al. (2012)]. To determine the minimal fungicidal concentration (MFC), 10 μL from the wells without visible growth was transferred onto SD agar ([Espinel-Ingroff et al., 2002]), and incubated at 37°C for 48 h. The MFC was determined as the lowest concentration capable of reducing the CFU counts to zero.

[3] = tested on: Cryptococcus neoformans biofilm; test: Antifungal activity on sessile cells, 72-h biofilm, MTT reduction (SMIC80); assay type: cell-based
Description: The capacity of C. neoformans strains to form biofilm was evaluated on flat-bottomed 96-well polystyrene plates (Techno Plastic Products, Switzerland), as described by [Martinez and Casadevall (2006)]. Thus, the biofilms were formed in SD broth statically at 37°C for 24, 48, 72, 96, and 120 h, with an inoculum of 1.0 × 10^7 CFU/mL. After each incubation period, the viability of sessile cells was evaluated using the 3-(4,5-dimethylthiazol-2-yl)-2,5-diphenyltetrazolium bromide (MTT, Merck, Brazil) reduction assay according to the manufacturer’s recommendations. The assays were carried out in quintuplicate and performed on two separate occasions.
To evaluate the antifungal activity of the compounds on sessile cells, biofilms were formed for 72 h, washed with saline, and 200-μL aliquots of RPMI-MOPS containing different concentrations of BTU-01 (31.25–1000.0 μg/mL) and/or AmB (0.007–16.0 μg/mL) were added for determining the SMIC (Sessile Minimal Inhibitory Concentration). Untreated and treated biofilms were incubated at 37°C for further 24 h, and then washed with saline. The biofilm viability was analyzed by the MTT reduction assay as described above. The SMICs of BTU-01 and AmB alone and combined were determined by the lowest concentration capable of inhibiting 80% (SCIM80) of the viability of sessile cells compared to the untreated controls. The checkerboard assays were performed to analyze the effect of the combination with BTU-01 and AmB on 72-h biofilms. The results of the combination were interpreted using the FICI as described previously.

[4] = Cryptococcus neoformans, 72 h, C. neoformans 1172; planktonic cells; 72 h; read-out: MIC
[5] = Cryptococcus neoformans, 72 h, C. neoformans 90889; planktonic cells; 72 h; read-out: MIC
[6] = Cryptococcus neoformans, 72 h, C. neoformans CN01; planktonic cells; 72 h; read-out: MIC
[7] = Cryptococcus neoformans, 72 h, C. neoformans CN12; planktonic cells; 72 h; read-out: MIC
[8] = Cryptococcus neoformans, ATCC34872, 72 h, C. neoformans ATCC 34872; planktonic cells; 72 h; read-out: MIC
[9] = Cryptococcus neoformans, ATCC66031, 72 h, C. neoformans ATCC 66031; planktonic cells; 72 h; read-out: MIC
[10] = C. neoformans 1172, treated 24 h
[11] = C. neoformans ATCC 34872, treated 24 h

| SMILES | capsule size (Cryptococcus neoformans [1]) | cell size (Cryptococcus neoformans [1]) | hemolysis at 3 h (Hemolysis assay) [%] | MIC (Cryptococcus neoformans [2]; [4]) [µg/mL] | MIC (Cryptococcus neoformans [2]; [5]) [µg/mL] | MIC (Cryptococcus neoformans [2]; [6]) [µg/mL] | MIC (Cryptococcus neoformans [2]; [7]) [µg/mL] | MIC (Cryptococcus neoformans [2]; [8]) [µg/mL] | MIC (Cryptococcus neoformans [2]; [9]) [µg/mL] | SMIC80 [3, 10] [µg/mL] | SMIC80 [3, 11] [µg/mL] | further results |
| --- | --- | --- | --- | --- | --- | --- | --- | --- | --- | --- | --- | --- |
| C[C@@H]1[C@H](O)[C@@H](C)/C=C/C=C/C=C/C=C/C=C/C=C/C=C/[C@H](O[C@@H]2O[C@H](C)[C@@H](O)[C@H](N)[C@@H]2O)C[C@@H]2O[C@](O)(C[C@@H](O)C[C@@H](O)[C@H](O)CC[C@@H](O)C[C@@H](O)CC(=O)O[C@H]1C)C[C@H](O)[C@H]2C(=O)O [Amphotericin B, amphotericin B] | significant reduction | significant reduction | 0.52 to 1.34 | 0.25 (≈ 0.271 µM) | 0.25 (≈ 0.271 µM) | 0.125 (≈ 0.135 µM) | 0.125 (≈ 0.135 µM) | 0.25 (≈ 0.271 µM) | 0.125 (≈ 0.135 µM) | 1.0 | 1.0 | MIC (Cryptococcus neoformans [2]; C. neoformans 1172; planktonic cells; 72 h; listed as AmB): 0.25 µg/mL (≈ 0.271 µM); MFC (Cryptococcus neoformans [2]; C. neoformans 90889; planktonic cells; 72 h): 0.5 µg/mL (≈ 0.541 µM); MIC (Cryptococcus neoformans [2]; C. neoformans ATCC 34872; planktonic cells; 72 h; listed as AmB): 0.25 µg/mL (≈ 0.271 µM); MFC (Cryptococcus neoformans [2]; C. neoformans CN01; planktonic cells; 72 h): 0.5 µg/mL (≈ 0.541 µM); MFC (Cryptococcus neoformans [2]; C. neoformans CN12; planktonic cells; 72 h): 0.5 µg/mL (≈ 0.541 µM); MFC (Cryptococcus neoformans [2]; Cryptococcus neoformans, ATCC34872; C. neoformans ATCC 34872; planktonic cells; 72 h; read-out: MFC): 0.5 µg/mL (≈ 0.541 µM); MFC (Cryptococcus neoformans [2]; Cryptococcus neoformans, ATCC66031; C. neoformans ATCC 66031; planktonic cells; 72 h; read-out: MFC): 0.5 µg/mL (≈ 0.541 µM); MFC (Cryptococcus neoformans [2]; Cryptococcus neoformans; C. neoformans 1172; planktonic cells; 72 h; read-out: MFC): 0.5 µg/mL (≈ 0.541 µM); susceptibility of the strains to the antifungal (Cryptococcus neoformans [2]; epidemiological cut-off values of Espinel-Ingroff et al., 2012; all strains): susceptible; MFC, range over all C. neoformans strains (Cryptococcus neoformans [2]; planktonic cells; all six strains): 0.5 µg/mL (≈ 0.541 µM) |
| CCCCNC(=S)NC(=O)c1ccccc1 [BTU-01, N-(butylcarbamothioyl) benzamide] | significant reduction | significant reduction | 0 to 3.18 | 62.5 (≈ 264 µM) | 62.5 (≈ 264 µM) | 62.5 (≈ 264 µM) | 31.2 (≈ 132 µM) | 62.5 (≈ 264 µM) | 62.5 (≈ 264 µM) | > 1000.0 | 125.0 | MFC (Cryptococcus neoformans [2]; Cryptococcus neoformans, 72 h, C. neoformans 1172; planktonic cells; 72 h; read-out: MFC): 125 µg/mL (≈ 529 µM); MFC (Cryptococcus neoformans [2]; Cryptococcus neoformans, 72 h, C. neoformans 90889; planktonic cells; 72 h; read-out: MFC): 250 µg/mL (≈ 1060 µM); MFC (Cryptococcus neoformans [2]; Cryptococcus neoformans, 72 h, C. neoformans CN01; planktonic cells; 72 h; read-out: MFC): 500 µg/mL (≈ 2120 µM); MFC (Cryptococcus neoformans [2]; Cryptococcus neoformans, 72 h, C. neoformans CN12; planktonic cells; 72 h; read-out: MFC): > 1000 µg/mL; MFC (Cryptococcus neoformans [2]; Cryptococcus neoformans, ATCC34872, 72 h, C. neoformans ATCC 34872; planktonic cells; 72 h; read-out: MFC): 125 µg/mL (≈ 529 µM); MFC (Cryptococcus neoformans [2]; Cryptococcus neoformans, ATCC66031, 72 h, C. neoformans ATCC 66031; planktonic cells; 72 h; read-out: MFC): 125 µg/mL (≈ 529 µM); nature of the antifungal effect (Cryptococcus neoformans [2]; from MIC and MFC; all strains): fungistatic effect |
